From ChEMBL document CHEMBL4507273 (2021)

Legend:
[1] = target: SNF-related serine/threonine-protein kinase (Homo sapiens) (UniProt Q9NRH2); details: Compound concentration 1000.0 nM
[2] = target: Protein kinase C delta type (Homo sapiens) (UniProt Q05655); details: Compound concentration 1000.0 nM
[3] = target: Mitotic checkpoint serine/threonine-protein kinase BUB1 (Homo sapiens) (UniProt O43683); details: Compound concentration 1000.0 nM
[4] = target: Ribosomal protein S6 kinase alpha-2 (Homo sapiens) (UniProt Q15349); details: Compound concentration 1000.0 nM
[5] = target: Mitogen-activated protein kinase 15 (Homo sapiens) (UniProt Q8TD08); details: Compound concentration 1000.0 nM
[6] = system: Mast/stem cell growth factor receptor Kit (Homo sapiens), P10721 [D816H]; details: Compound concentration 1000.0 nM
[7] = system: Phosphatidylinositol 4,5-bisphosphate 3-kinase catalytic subunit alpha isoform (Homo sapiens), P42336 [I800L]; details: Compound concentration 1000.0 nM
[8] = target: Serine/threonine-protein kinase RIO2 (Homo sapiens) (UniProt Q9BVS4); details: Compound concentration 1000.0 nM
[9] = target: Ribosomal protein S6 kinase alpha-5 (Homo sapiens) (UniProt O75582); details: Compound concentration 1000.0 nM
[10] = target: Serine/threonine-protein kinase STK11 (Homo sapiens) (UniProt Q15831); details: Compound concentration 1000.0 nM
[11] = system: Proto-oncogene tyrosine-protein kinase receptor Ret (Homo sapiens), P07949 [V804L]; details: Compound concentration 1000.0 nM
[12] = target: Myosin-IIIb (Homo sapiens) (UniProt Q8WXR4); details: Compound concentration 1000.0 nM
[13] = target: Serine/threonine-protein kinase 3 (Homo sapiens) (UniProt Q13188); details: Compound concentration 1000.0 nM
[14] = target: Serine/threonine-protein kinase PLK4 (Homo sapiens) (UniProt O00444); details: Compound concentration 1000.0 nM
[15] = target: Guanine nucleotide exchange factor DBS (Homo sapiens, UniProt O15068); experiment: CDC42 activation by DBS assay
[16] = target: Wee1-like protein kinase 2 (Homo sapiens) (UniProt P0C1S8); details: Compound concentration 1000.0 nM
[17] = target: LIM domain kinase 1 (Homo sapiens) (UniProt P53667); details: Compound concentration 1000.0 nM
[18] = target: Serine/threonine-protein kinase TAO2 (Homo sapiens) (UniProt Q9UL54); details: Compound concentration 1000.0 nM
[19] = target: 5-hydroxytryptamine receptor 1D (Homo sapiens, UniProt P28221); details: Compound concentration 10.0 uM
[20] = system: Hepatocyte growth factor receptor (Homo sapiens), P08581 [M1250T]; details: Compound concentration 1000.0 nM
[21] = target: Muscle, skeletal receptor tyrosine-protein kinase (Homo sapiens) (UniProt O15146); details: Compound concentration 1000.0 nM
[22] = target: Inhibitor of nuclear factor kappa-B kinase subunit alpha (Homo sapiens) (UniProt O15111); details: Compound concentration 1000.0 nM
[23] = target: Casein kinase I isoform gamma-3 (Homo sapiens) (UniProt Q9Y6M4); details: Compound concentration 1000.0 nM
[24] = target: Transient receptor potential cation channel subfamily M member 6 (Homo sapiens) (UniProt Q9BX84); details: Compound concentration 1000.0 nM
D(3) dopamine receptor = D(3) dopamine receptor (Homo sapiens, UniProt P35462); experiment: GPCRScan assay: inhibition of D3; parameters: radioligand conc. used [nm] 0.5 – 1.8, parental cells HEKT
[25] = target: Mitogen-activated protein kinase kinase kinase 12 (Homo sapiens) (UniProt Q12852); details: Compound concentration 1000.0 nM
[26] = target: Serine/threonine-protein kinase Nek9 (Homo sapiens) (UniProt Q8TD19); details: Compound concentration 1000.0 nM
[27] = target: Tyrosine-protein kinase CSK (Homo sapiens) (UniProt P41240); details: Compound concentration 1000.0 nM
[28] = target: Activin receptor type-1-like (Homo sapiens) (UniProt P37023); details: Compound concentration 1000.0 nM
[29] = target: Dual specificity mitogen-activated protein kinase kinase 7 (Homo sapiens) (UniProt O14733); details: Compound concentration 1000.0 nM
[30] = target: Cyclin-dependent kinase 2 homolog (Plasmodium falciparum (isolate 3D7)) (UniProt P61075); details: Compound concentration 1000.0 nM
[31] = target: Dual specificity protein kinase CLK1 (Homo sapiens) (UniProt P49759); details: Compound concentration 1000.0 nM
[32] = target: Serine/threonine-protein kinase ICK (Homo sapiens) (UniProt Q9UPZ9); details: Compound concentration 1000.0 nM
[33] = target: RAC-alpha serine/threonine-protein kinase (Homo sapiens) (UniProt P31749); details: Compound concentration 1000.0 nM
[34] = target: Tyrosine-protein kinase Srms (Homo sapiens) (UniProt Q9H3Y6); details: Compound concentration 1000.0 nM
[35] = target: Tyrosine-protein kinase Mer (Homo sapiens) (UniProt Q12866); details: Compound concentration 1000.0 nM
[36] = system: Receptor-type tyrosine-protein kinase FLT3 (Homo sapiens), P36888 [UNDEFINED MUTATION]; details: Compound concentration 1000.0 nM
[37] = target: Kappa-type opioid receptor (Homo sapiens, UniProt P41145); details: Compound concentration 10.0 uM
[38] = target: Serine/threonine-protein kinase OSR1 (Homo sapiens) (UniProt O95747); details: Compound concentration 1000.0 nM
[39] = target: Proto-oncogene tyrosine-protein kinase Src (Homo sapiens) (UniProt P12931); details: Compound concentration 1000.0 nM
[40] = target: Calcium/calmodulin-dependent protein kinase type 1 (Homo sapiens) (UniProt Q14012); details: Compound concentration 1000.0 nM
[41] = target: Peripheral plasma membrane protein CASK (Homo sapiens) (UniProt O14936); details: Compound concentration 1000.0 nM
[42] = target: Bone morphogenetic protein receptor type-1A (Homo sapiens) (UniProt P36894); details: Compound concentration 1000.0 nM
[43] = target: Serine/threonine-protein kinase Chk1 (Homo sapiens) (UniProt O14757); details: Compound concentration 1000.0 nM
[44] = target: Dual specificity mitogen-activated protein kinase kinase 1 (Homo sapiens) (UniProt Q02750); details: Compound concentration 1000.0 nM

Sequence of Calcium/calmodulin-dependent protein kinase type 1 (Homo sapiens) (Q14012 whole entry, looked up): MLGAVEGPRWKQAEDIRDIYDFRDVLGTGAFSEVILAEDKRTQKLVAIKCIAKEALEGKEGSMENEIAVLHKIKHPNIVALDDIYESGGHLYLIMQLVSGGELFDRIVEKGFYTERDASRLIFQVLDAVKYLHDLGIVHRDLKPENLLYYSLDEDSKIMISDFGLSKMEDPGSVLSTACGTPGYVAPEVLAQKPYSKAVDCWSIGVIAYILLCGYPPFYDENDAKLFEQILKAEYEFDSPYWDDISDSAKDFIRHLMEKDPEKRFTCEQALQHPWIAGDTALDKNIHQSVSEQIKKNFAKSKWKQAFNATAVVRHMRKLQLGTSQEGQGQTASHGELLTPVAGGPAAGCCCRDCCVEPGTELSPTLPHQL
Sequence of Protein kinase C delta type (Homo sapiens) (Q05655 whole entry, looked up): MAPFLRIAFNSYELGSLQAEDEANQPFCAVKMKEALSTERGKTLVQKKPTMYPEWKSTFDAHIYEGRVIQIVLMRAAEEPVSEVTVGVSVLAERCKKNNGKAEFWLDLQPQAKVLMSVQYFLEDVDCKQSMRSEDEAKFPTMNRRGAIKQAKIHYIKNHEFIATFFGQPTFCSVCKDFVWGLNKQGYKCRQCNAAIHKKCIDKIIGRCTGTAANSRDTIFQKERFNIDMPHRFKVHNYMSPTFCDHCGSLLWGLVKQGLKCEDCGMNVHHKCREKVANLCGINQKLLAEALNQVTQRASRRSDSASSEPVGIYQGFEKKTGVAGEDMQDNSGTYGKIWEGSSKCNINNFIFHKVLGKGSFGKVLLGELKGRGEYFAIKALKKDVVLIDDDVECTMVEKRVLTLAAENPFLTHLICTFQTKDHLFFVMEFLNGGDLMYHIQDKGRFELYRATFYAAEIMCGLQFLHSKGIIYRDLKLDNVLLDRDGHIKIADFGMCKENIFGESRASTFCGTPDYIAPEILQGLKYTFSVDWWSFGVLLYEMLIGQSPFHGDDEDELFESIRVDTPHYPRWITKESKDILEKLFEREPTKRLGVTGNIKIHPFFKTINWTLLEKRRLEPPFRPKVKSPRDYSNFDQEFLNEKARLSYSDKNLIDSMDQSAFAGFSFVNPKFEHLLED
Sequence of Serine/threonine-protein kinase TAO2 (Homo sapiens) (Q9UL54 whole entry): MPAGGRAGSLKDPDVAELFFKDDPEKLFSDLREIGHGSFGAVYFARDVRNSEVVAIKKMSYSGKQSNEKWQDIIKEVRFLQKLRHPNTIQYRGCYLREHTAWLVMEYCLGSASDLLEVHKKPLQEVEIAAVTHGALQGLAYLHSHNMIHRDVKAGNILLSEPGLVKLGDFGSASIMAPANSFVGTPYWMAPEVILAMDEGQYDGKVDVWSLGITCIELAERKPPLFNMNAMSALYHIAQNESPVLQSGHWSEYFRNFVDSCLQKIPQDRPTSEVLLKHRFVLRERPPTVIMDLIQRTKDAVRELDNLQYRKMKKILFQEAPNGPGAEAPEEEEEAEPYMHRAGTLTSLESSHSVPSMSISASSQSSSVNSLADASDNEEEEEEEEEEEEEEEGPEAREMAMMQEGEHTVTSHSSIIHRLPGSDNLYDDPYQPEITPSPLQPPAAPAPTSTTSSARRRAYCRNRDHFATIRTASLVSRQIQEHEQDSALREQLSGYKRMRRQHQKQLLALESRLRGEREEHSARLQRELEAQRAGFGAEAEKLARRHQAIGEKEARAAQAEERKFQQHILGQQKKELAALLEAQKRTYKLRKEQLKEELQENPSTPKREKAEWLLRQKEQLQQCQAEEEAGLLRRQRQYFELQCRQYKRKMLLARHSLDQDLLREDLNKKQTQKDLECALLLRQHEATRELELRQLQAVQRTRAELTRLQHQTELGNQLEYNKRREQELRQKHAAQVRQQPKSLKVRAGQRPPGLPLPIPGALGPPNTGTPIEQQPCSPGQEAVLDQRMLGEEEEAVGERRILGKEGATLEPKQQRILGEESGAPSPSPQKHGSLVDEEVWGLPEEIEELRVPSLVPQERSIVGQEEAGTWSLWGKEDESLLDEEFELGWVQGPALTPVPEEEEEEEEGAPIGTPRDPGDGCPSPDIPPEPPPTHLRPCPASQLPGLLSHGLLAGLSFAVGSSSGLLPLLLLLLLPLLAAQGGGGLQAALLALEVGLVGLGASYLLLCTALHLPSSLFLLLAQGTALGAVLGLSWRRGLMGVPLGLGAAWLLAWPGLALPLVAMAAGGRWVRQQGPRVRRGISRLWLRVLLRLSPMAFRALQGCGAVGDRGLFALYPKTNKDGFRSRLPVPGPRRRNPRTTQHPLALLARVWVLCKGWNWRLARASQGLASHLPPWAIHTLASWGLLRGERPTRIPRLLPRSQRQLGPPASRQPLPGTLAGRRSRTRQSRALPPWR
Sequence of Serine/threonine-protein kinase RIO2 (Homo sapiens) (Q9BVS4 whole entry, looked up): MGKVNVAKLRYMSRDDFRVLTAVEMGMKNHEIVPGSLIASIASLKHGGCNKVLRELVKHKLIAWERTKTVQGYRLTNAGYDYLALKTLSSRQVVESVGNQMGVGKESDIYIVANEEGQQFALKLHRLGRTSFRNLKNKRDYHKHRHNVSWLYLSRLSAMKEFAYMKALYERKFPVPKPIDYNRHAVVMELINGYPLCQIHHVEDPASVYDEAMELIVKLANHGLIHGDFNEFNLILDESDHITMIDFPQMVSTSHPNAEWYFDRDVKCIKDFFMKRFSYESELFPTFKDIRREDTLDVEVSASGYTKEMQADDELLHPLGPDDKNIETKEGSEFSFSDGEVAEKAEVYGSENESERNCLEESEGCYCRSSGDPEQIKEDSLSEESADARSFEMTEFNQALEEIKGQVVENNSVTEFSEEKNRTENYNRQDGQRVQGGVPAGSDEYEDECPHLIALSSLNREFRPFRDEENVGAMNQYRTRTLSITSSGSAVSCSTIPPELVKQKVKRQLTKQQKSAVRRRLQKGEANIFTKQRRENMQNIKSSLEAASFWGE
Sequence of 5-hydroxytryptamine receptor 1D (P28221 whole entry): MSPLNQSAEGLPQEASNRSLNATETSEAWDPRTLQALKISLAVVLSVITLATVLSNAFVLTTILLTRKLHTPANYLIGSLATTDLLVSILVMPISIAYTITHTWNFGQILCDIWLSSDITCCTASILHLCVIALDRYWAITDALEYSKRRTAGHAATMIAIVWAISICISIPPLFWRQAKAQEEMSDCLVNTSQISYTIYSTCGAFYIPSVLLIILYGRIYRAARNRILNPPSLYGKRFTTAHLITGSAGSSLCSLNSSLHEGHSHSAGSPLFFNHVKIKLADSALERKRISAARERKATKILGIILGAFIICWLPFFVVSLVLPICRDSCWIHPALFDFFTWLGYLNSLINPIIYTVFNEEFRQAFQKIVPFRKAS
Sequence of Proto-oncogene tyrosine-protein kinase Src (Homo sapiens) (P12931 2-536 limits assumed): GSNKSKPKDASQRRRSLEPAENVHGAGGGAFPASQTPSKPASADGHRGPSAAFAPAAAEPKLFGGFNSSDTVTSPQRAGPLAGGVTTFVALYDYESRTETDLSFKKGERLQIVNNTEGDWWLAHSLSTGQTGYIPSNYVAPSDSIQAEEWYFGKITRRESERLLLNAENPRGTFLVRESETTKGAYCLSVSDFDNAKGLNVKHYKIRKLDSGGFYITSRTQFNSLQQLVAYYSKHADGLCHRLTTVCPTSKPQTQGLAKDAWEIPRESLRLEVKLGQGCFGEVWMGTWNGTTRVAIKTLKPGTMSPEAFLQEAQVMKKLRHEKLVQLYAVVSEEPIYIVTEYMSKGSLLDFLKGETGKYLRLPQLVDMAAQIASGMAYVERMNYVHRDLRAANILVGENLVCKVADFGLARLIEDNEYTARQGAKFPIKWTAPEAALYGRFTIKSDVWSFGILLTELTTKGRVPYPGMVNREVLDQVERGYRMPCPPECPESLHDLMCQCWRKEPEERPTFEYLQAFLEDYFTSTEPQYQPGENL
Sequence of SNF-related serine/threonine-protein kinase (Homo sapiens) (Q9NRH2 whole entry): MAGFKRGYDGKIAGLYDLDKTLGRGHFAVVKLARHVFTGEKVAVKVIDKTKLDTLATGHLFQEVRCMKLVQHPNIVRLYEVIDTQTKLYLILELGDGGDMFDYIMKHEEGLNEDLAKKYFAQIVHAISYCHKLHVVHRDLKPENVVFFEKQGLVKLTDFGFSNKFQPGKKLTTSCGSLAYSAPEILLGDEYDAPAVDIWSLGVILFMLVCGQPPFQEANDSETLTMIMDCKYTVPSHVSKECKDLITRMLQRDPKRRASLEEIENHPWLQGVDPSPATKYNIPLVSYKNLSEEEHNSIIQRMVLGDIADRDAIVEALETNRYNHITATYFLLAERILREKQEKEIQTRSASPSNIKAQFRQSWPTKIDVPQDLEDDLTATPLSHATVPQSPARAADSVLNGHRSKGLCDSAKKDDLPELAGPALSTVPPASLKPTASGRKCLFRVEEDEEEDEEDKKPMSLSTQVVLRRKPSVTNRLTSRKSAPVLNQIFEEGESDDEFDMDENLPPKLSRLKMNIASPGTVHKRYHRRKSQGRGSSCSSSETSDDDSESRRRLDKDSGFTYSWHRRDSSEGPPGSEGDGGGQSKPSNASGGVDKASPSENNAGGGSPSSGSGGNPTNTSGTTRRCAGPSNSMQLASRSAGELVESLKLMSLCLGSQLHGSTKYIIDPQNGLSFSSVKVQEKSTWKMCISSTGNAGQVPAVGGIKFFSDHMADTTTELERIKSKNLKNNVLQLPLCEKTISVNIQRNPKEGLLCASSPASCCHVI
Sequence of D(3) dopamine receptor (P35462 whole entry): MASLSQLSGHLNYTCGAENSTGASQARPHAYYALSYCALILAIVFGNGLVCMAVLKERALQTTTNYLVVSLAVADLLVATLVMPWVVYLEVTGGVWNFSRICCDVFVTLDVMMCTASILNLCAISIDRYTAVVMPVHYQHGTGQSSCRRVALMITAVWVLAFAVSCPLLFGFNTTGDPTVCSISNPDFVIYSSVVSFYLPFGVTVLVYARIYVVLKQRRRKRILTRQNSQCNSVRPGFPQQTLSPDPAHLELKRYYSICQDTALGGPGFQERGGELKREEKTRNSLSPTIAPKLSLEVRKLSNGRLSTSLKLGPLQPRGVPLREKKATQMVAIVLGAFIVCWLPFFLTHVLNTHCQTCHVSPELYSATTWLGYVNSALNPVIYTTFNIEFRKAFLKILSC

Structure (SMILES): CNCc1ccccc1-c1csc([C@@H](C)Nc2nc(C)nc3cc(OC)c(OC)cc23)c1 [BAY-293]
- residual activity [1]: 78%
- residual activity [2]: 98%
- residual activity [3]: 100%
- residual activity [4]: 100%
- residual activity [5]: 100%
- residual activity [6]: 85%
- residual activity [7]: 85%
- residual activity [8]: 100%
- residual activity [9]: 89%
- residual activity [10]: 96%
- residual activity [11]: 73%
- residual activity [12]: 47%
- residual activity [13]: 85%
- residual activity [14]: 74%
- IC50 [15]: > 20000 nM (not active)
- residual activity [16]: 100%
- residual activity [17]: 99%
- residual activity [18]: 86%
- inhibition [19]: 98.1%
- residual activity [20]: 79%
- residual activity [21]: 93%
- residual activity [22]: 100%
- residual activity [23]: 99%
- residual activity [24]: 91%
- Ki (D(3) dopamine receptor): 936 nM
- residual activity [25]: 100%
- residual activity [26]: 100%
- residual activity [27]: 100%
- residual activity [28]: 87%
- residual activity [29]: 79%
- residual activity [30]: 76%
- residual activity [31]: 98%
- residual activity [32]: 82%
- residual activity [33]: 100%
- residual activity [34]: 92%
- residual activity [35]: 61%
- residual activity [36]: 48%
- inhibition [37]: 26.9%
- residual activity [38]: 67%
- residual activity [39]: 100%
- residual activity [40]: 100%
- residual activity [41]: 81%
- residual activity [42]: 91%
- residual activity [43]: 92%
- residual activity [44]: 86%

Structure (SMILES): CNCc1ccccc1-c1csc([C@H](C)Nc2nc(C)nc3cc(OC)c(OC)cc23)c1 [BAY-294]
- residual activity [1]: 93%
- residual activity [2]: 100%
- residual activity [3]: 100%
- residual activity [4]: 100%
- residual activity [5]: 100%
- residual activity [6]: 95%
- residual activity [7]: 81%
- residual activity [8]: 100%
- residual activity [9]: 82%
- residual activity [10]: 100%
- residual activity [11]: 99%
- residual activity [12]: 87%
- residual activity [13]: 89%
- residual activity [14]: 76%
- IC50 [15]: > 20000 nM (not active)
- residual activity [16]: 100%
- residual activity [17]: 100%
- residual activity [18]: 90%
- inhibition [19]: 98.9%
- residual activity [20]: 96%
- residual activity [21]: 90%
- residual activity [22]: 90%
- residual activity [23]: 93%
- residual activity [24]: 100%
- Ki (D(3) dopamine receptor): 869 nM
- residual activity [25]: 97%
- residual activity [26]: 100%
- residual activity [27]: 100%
- residual activity [28]: 100%
- residual activity [29]: 81%
- residual activity [30]: 71%
- residual activity [31]: 95%
- residual activity [32]: 86%
- residual activity [33]: 100%
- residual activity [34]: 88%
- residual activity [35]: 72%
- residual activity [36]: 81%
- inhibition [37]: 64.4%
- residual activity [38]: 78%
- residual activity [39]: 100%
- residual activity [40]: 100%
- residual activity [41]: 71%
- residual activity [42]: 100%
- residual activity [43]: 100%
- residual activity [44]: 100%
